The target of one test is KRAS-WT (Homo sapiens, UniProt P01116). Kind of test: SOS-catalyzed nucleotide exchange assay (Procedure A, TR-FRET), KRAS-WT. The class given is biochemical. The settings on record: nucleotide exchange, read-out: KRAS WT GNE IC50. Put shortly: (§1)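 RAS (G12C carries C51S/C80L/C118S) loaded with Bodipy-GDP, complexed with Tb-streptavidin; cpd 60 min RT; + SOS/3 mM GTP. G12C 3/40 nM, WT 1/40, NRAS 1.25/40 nM RAS/SOS, 60 min; G12V 1.25/160 nM, 90 min. Normalized to DMSO and saturating inhibitor; 4PL fit.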
On the technique in general: In TR-FRET formats the signal depends on donor and acceptor labels being close together.

The test system of another test is AsPC-1 cells. Briefly: Cellular phospho-ERK assay, AsPC-1 cells (homozygous KRAS-G12D). The class given is cell-based. The settings on record: Homo sapiens, ASPC1, 2 h, read-out: AsPC1 pERK IC50. Put shortly: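 p-ERK/total ERK ratio, measured by AlphaLISA SureFire Ultra multiplex in lysates, was fitted to a 4-parameter logistic model for IC50. Compound exposure was 2 h at 37° C, 5% CO2, 10-point 1:3 dilutions from 30 μM final, on cells plated the previous night.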

The next test deals with MKN-1 cells. Kind of test: Cellular phospho-ERK assay, MKN-1 cells (amplified wild-type KRAS). The class given is cell-based. The conditions noted are these: Homo sapiens, read-out: MKN1 pERK IC50. Here is the method:
(§2) Procedure for Cellular Phospho-ERK Assay in KRAS Wild Type and Mutant (G12D, G12V) Cell Lines
(§3) MKN-1 cells (JCRB JCRB0252) containing amplified wild-type KRAS, were cultured in growth medium that contains RPMI 1640-GlutaMAX™-I (ThermoFisher Scientific 61870) containing 10% heat inactivated fetal bovine serum (ThermoFisher Scientific 10091148), 1 mM sodium pyruvate and 10 mM HEPES. PANC08.13 cells (ATCC® CRL-2551™), containing homozygous KRAS-G12D activating mutation, were cultured in growth medium made of RPMI1640-GlutaMAX™-I (ThermoFisher Scientific 61870) containing 15% heat inactivated fetal bovine serum (ThermoFisher Scientific 10091148)). AsPC-1 cells (ATCC® CRL-1682™), containing homozygous KRAS-G12D activating mutation, were cultured in T150 flask in growth medium (RPMI medium 1640-GlutaMAX™-I (ThermoFisher Scientific 61870) containing 10% fetal bovine serum (ThermoFisher Scientific 10091148)). SW620 cells (ATCC® […]), containing homozygous KRAS-G12V activating mutation, were cultured in growth medium that contains RPMI 1640-GlutaMAX™-I (ThermoFisher Scientific 61870) containing 10% heat inactivated fetal bovine serum (ThermoFisher Scientific 10091148).
(§4) Cells for the assay were harvested in growth medium after TrypLE (ThermoFisher scientific 12604021) digestion and were seeded in a 384-well collagen coated cell culture plate (Corning 356702) at a density of 10,000-15,000 cells/20 μL/well, and incubated at 37° C., 5% CO2 overnight. The compound (with 10 mM stock concentration) dose-response titrations were prepared [30 μM final ERK detection assay concentration and 1:3 dilutions, 10-point dose response] and appropriate amounts (270 nL) of test compounds were dispensed in a 384-well intermediate plate using an Echo 550 liquid handler. 30 μL/well of RPMI medium 1640-GlutaMAX™—I was added to the intermediate plate and the contents of the intermediate plate (10 μL/well) were then transferred to the 384-well collagen coated cell culture plate, which was incubated at 37° C., 5% CO2 for 2 hours. After removal of medium from the collagen coated cell culture plate, cells were lysed in lysis buffer from Alpha SureFire® Ultra™ Multiplex p-ERK and total ERK assay kit (PerkinElmer MPSU-PTERK) containing Halt™ Protease and Phosphatase inhibitor cocktail (ThermoFisher Scientific 78446) at room temperature with constant shaking at 300 rpm for 30 minutes. The cell lysates were then transferred to an OptiPlate-384 plate (PerkinElmer 6005620), and the phosphorylation of ERK (p-ERK) and total ERK levels were detected by Alpha SureFire® Ultra™ Multiplex p-EEK kit and total ERK assay kit (PerkinElmer MPSU-PTERK) following the manufacturer's protocol. Assay plates were read on a En Vision Multimode Plate Reader (PerkinElmer), and the ratio of p-ERK vs. total ERK in each well was used as the final readout. Dose response curves were analyzed using a 4-parameter logistic model to calculate IC50 values using Spotfire software.

A further test deals with KRAS-G12D (Homo sapiens, UniProt P01116, G12D). Kind of test: SOS-catalyzed nucleotide exchange assay (Procedure A, TR-FRET), KRAS-G12D. The class given is biochemical. The settings on record: nucleotide exchange, read-out: KRAS G12D GNE IC50. Put shortly: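 Signal ratio (520/495 nm, excitation 340 nm) reports Bodipy-GDP retention on biotinylated RAS after SOS-catalyzed exchange with 3 mM GTP. SOS was 40 nM, except 160 nM for G12V. Room-temperature exchange lasted 60 min (90 min for G12V), following a 60 min compound preincubation.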

Another test has as its system SW620 cells. Kind of test: Cellular phospho-ERK assay, SW620 cells (homozygous KRAS-G12V). The class given is cell-based. The settings on record: Homo sapiens, read-out: SW620 pERK IC50. As to the method: as §2, §3, §4
Another test deals with KRAS-G12V (Homo sapiens, UniProt P01116, G12V). Briefly: SOS-catalyzed nucleotide exchange assay (Procedure A, TR-FRET), KRAS-G12V. The settings on record: nucleotide exchange, read-out: KRAS G12V GNE IC50. The class given is biochemical. The method, boiled down: as §1
Where [1] appears, read: SW-620, 2 hours compound incubation.

For ten compounds, IC50 results are on record in US20260176289A1, “SMALL MOLECULE INHIBITORS OF KRAS PROTEINS” (Merck Sharp & Dohme LLC, priority 2022, published 2026).

In general, IC50 refers to the concentration that inhibits the measured activity by half.

Structures are written as SMILES. Where two headings read alike, the source gives them in different places.

Chain of KRAS-G12V (P01116 with tags, fused parts or gaps isoform P01116-2 G12V): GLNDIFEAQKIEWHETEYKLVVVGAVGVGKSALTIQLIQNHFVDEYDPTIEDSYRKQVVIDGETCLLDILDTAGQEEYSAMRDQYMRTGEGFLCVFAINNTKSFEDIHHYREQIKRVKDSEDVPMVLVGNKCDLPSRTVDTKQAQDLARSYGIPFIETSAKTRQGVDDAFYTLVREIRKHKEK
Chain of KRAS-WT (P01116 with tags, fused parts or gaps isoform P01116-2): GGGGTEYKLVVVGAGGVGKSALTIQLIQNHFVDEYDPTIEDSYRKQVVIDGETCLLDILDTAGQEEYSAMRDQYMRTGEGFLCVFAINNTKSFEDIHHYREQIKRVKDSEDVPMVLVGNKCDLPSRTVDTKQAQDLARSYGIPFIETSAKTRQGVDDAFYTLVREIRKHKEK
Chain of KRAS-G12D (P01116 with tags, fused parts or gaps isoform P01116-2 G12D): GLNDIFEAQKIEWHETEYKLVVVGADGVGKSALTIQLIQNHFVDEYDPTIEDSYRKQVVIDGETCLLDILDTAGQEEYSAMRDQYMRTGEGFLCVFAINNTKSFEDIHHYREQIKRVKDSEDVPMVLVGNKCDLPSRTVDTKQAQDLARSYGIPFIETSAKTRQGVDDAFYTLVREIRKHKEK

In the case of `CC(C)(C)c1c(Cl)cc2[nH]ncc2c1-c1nccc2c1sc1nc(OC[C@@]34CCCN3C[C@H](F)C4)nc(N3CCOC[C@@](C)(O)C3)c12` [Ex-156, (6S)-4-(8-(5-(tert-butyl)-6-chloro-1H-indazol-4-yl)-2-(((2R,7aS)-2-fluorotetrahydro-1H-pyrrolizin-7a(5H)-yl)methoxy)pyrido[4′,3′:4,5]thieno[2,3-d]pyrimidin-4-yl)-6-methyl-1,4-oxazepan-6-ol], the IC50 on KRAS-WT came to 18.9 nM; in the test on AsPC-1 cells (2 hours compound incubation), 76.1 nM; in the test with MKN-1 cells (2 hours compound incubation), 113 nM; on KRAS-G12D it was 5.21 nM; with SW620 cells (setting [1]), 45.2 nM; at KRAS-G12V, 16.7 nM.
In the case of `CCC1c2c(cc3[nH]ncc3c2-c2nccc3c2sc2nc(OC[C@@]45CCCN4C[C@H](F)C5)nc(N4CCOC[C@@](C)(O)C4)c23)CC1(F)F` (single isomer, unassigned) [Ex-108], the IC50 on KRAS-WT amounted to 3.09 nM; with AsPC-1 cells (KRAS-G12D, 2 hours), 50 nM; in the test on MKN-1 cells (amplified wild-type KRAS, 2 hours) it was 28.9 nM; at KRAS-G12D it was 1.52 nM; in the test on SW620 cells (SW-620, KRAS-G12V, 2 hours), 20.9 nM; on KRAS-G12V it was 5.41 nM.
For the compound `CC1(O)COCCN(c2nc(OCC3(CN4CC5C(F)C5C4)CC3(F)F)nc3sc4c(-c5c(C6CC6)c(Cl)cc6[nH]ncc56)nccc4c23)C1` [Ex-214, (6S)-4-(8-(6-chloro-5-cyclopropyl-1H-indazol-4-yl)-2-(((R)-2,2-difluoro-1-(((1R,5S,6R)-6-fluoro-3-azabicyclo [3.1.0]hexan-3-yl)-methyl)cycloprop-yl)methoxy)pyrido [4′,3′:4,5]thieno[2,3-d]pyrimidin-4-yl)-6-methyl-1,4-oxaze-pan-6-ol], the IC50 on KRAS-WT came out at 498 nM; with AsPC-1 cells (2 hours compound incubation), 136 nM; in the test with MKN-1 cells (2 hours compound incubation) it was 171 nM; at KRAS-G12D, 62.8 nM; with SW620 cells (setting [1]) it was 107 nM; at KRAS-G12V it was 243 nM.
For the compound `C[C@@]1(O)COCCN(c2nc(OC[C@]3(CN4C[C@H]5COC[C@H]5C4)CC3(F)F)nc3sc4c(-c5c(C6(F)CC6)c(Cl)cc6[nH]ncc56)nccc4c23)C1` [Ex-235, (6S)-4-(8-(6-chloro-5-(1-fluorocyclopropyl)-1H-indazol-4-yl)-2-(((R)-2,2-difluoro-1-(((3aR,6aS)-tetrahydro-1H-furo[3,4-c]pyrrol-5(3H)-yl)methyl)cyclopropyl)metho-xy)pyrido[4′,3′:4,5]thieno[2,3-d]pyrimidin-4-yl)-6-methyl-1,4-oxazepan-6-ol], the IC50 on KRAS-WT stood at 31.6 nM; in the test with AsPC-1 cells (2 hours compound incubation), 206 nM; at KRAS-G12D, 3.86 nM; on KRAS-G12V, 19.4 nM.
For the compound `C[C@@]1(O)COCCN(c2nc(OC[C@@]34CCCN3C[C@H](F)C4)nc3sc4c(-c5c(-c6ccco6)c(C(F)(F)F)cc6[nH]ncc56)nccc4c23)C1` [Ex-78], the IC50 on KRAS-WT is 194 nM; in the test with AsPC-1 cells (KRAS-G12D, 2 hours) it was 434 nM; at KRAS-G12D it was 94.7 nM; on KRAS-G12V, 84.8 nM.
Turning to `C[C@H]1CN(C[C@@]2(COc3nc(N4CCOC[C@@](C)(O)C4)c4c(n3)sc3c(-c5c(C6(F)CC6)c(Cl)cc6[nH]ncc56)nccc34)CC2(F)F)[C@@H](C)CO1` [Ex-241, (6S)-4-(8-(6-chloro-5-(1-fluorocyclopropyl)-1H-indazol-4-yl)-2-(((R)-1-(((2S,5S)-2,5-dimethylmorpholino)methyl)-2,2-difluorocyclopropyl)methoxy)pyrido[4′,3′:4,5]thieno[2,3-d]pyrimidin-4-yl)-6-methyl-1,4-oxazepan-6-ol], the IC50 amounted to 1860 nM on KRAS-WT, 1410 nM in the test on AsPC-1 cells (2 hours compound incubation), 98.2 nM on KRAS-G12D and 308 nM on KRAS-G12V.
Turning to `CCC1=CC(F)(F)c2cc3[nH]ncc3c(-c3nccc4c3sc3nc(OC[C@@]56CCCN5C[C@H](F)C6)nc(N5CCOC[C@@](C)(O)C5)c34)c21` [Ex-114, (6S)-4-(8-(5-ethyl-7,7-difluoro-1,7-dihydrocyclopenta[f]inda-zol-4-yl)-2-(((2R,7aS)-2-fluorotetrahydro-1H-pyrrolizin-7a(5H)-yl)methoxy)pyrido[4′,3′:4,5]thi-eno[2,3-d]pyrimidin-4-yl)-6-methyl-1,4-oxazepan-6-ol], the IC50 on KRAS-WT was 380 nM; in the test with AsPC-1 cells (KRAS-G12D, 2 hours), 670 nM; at KRAS-G12D, 165 nM; on KRAS-G12V, 278 nM.
Consider `C[C@@]1(O)COCCN(c2nc(OC[C@@]34CCCN3C[C@H](F)C4)nc3sc4c(-c5c6ccccc6cc6[nH]ncc56)nccc4c23)C1` [Ex-170, (6S)-4-(8-(1H-benzo[f]indazol-4-yl)-2-(((2R,7aS)-2-fluorotetrahydro-1H-pyrrolizin-7a(5H)-yl)methoxy)pyrido[4′,3′:4,5]thieno[2,3-d]pyrimidin-4-yl)-6-methyl-1,4-oxazepan-6-ol], for which the IC50 was 89.6 nM on KRAS-WT, 219 nM in the test with AsPC-1 cells (2 hours compound incubation), 32.9 nM at KRAS-G12D and 33.4 nM on KRAS-G12V.
For `Cc1cc2[nH]ncc2c(-c2nccn3c2c(Cl)c2nc(OC[C@@]45CCCN4C[C@H](F)C5)nc(N4CCOC[C@@](C)(O)C4)c23)c1C(F)(F)F` [Ex-299, (S)-4-(10-chloro-2-(((2R,7aS)-2-fluorotetrahydro-1H-pyrrolizin-7a(5H)-yl)methoxy)-9-(6-methyl-5-(trifluoromethyl)-1H-indazol-4-yl)pyrazino[1′,2′:1,5]pyrrolo[3,2-d]pyrimidin-4-yl)-6-methyl-1,4-oxazepan-6-ol], the IC50 on KRAS-WT stood at 293 nM; in the test with AsPC-1 cells (KRAS-G12D, 2 hours), 1450 nM; on KRAS-G12D, 115 nM; on KRAS-G12V, 93.1 nM.
Turning to `CN1CC[C@H]2C(Oc3nc(N4CCOC[C@@](C)(O)C4)c4c(n3)sc3c(-c5c(C6CC6)c(Cl)cc6[nH]ncc56)nccc34)C[C@H]21` (stereo partly drawn) [Ex-216, (6S)-4-(8-(6-chloro-5-cyclopropyl-1H-indazol-4-yl)-2-(((1R,5R,6S)-2-methyl-2-azabicyclo [3.2.0]heptan-6-yl)-oxy)pyrido[4′,3′: 4,5]thieno[2,3-d]pyrimidin-4-yl)-6-methyl-1,4-oxaze-pam-6-ol], the IC50 at KRAS-WT was determined as 1590 nM; in the test on AsPC-1 cells (2 hours compound incubation) it was 2900 nM; at KRAS-G12D, 464 nM; on KRAS-G12V it was 864 nM.
